In one experiment the test system is HuR in A375 cells. Description: Western blot of nuclear and cytoplasmic fractions for HuR expression, A375. It counts as cell-based, human. Conditions: for HuR cytoplasmic content: C1 5 mM or 1 mM for 6 days, C2 15 μM 24 h. An excerpt: (§1) Some HIV protease inhibitors (such as Nelfinavir) have been used in combination with a BRAF inhibitor to potentiate its effect (Smith et al., 2016, cancer cell, 29(3): 270-284) and some HIV protease inhibitors have (such as Lopinavir) been reported as increasing the cytosolic translocation of HuR (Chen et al., 2009, Biochem Pharmacol., 78(1): 70-77). Further, some polyamine depleting agents i.e. agents reducing the cellular content in polyamines (α-difluoromethylornithine (DFMO), also named Eflornithin) have been reported to modulate cytoplasmic HuR levels (Zou et al., 2006, J. Biol. Chem., 281(28):19387-94). Therefore, a […], Eflornithine (DFMO) and a HIV protease inhibitor, lopinavir ((2S)-N-[(2S,4S,5S)-5-[[2-(2,6-dimethylphenoxy)acetyl]amino]-4-hydroxy-1,6-diphenylhexan-2-yl]-3-methyl-2-(2-oxo-1,3-diazinan-1-yl)butanamide) were tested as comparative examples ((comparative compounds C1 and C2, respectively)) for their ability to increase HuR cytoplasmic localization in melanoma (A375 and the MALME-3M cells (melanoma BRAF mutated sensitive cell lines) cell lines as follows and analysis was conducted by Western blot analysis as described in Example 1 [, except that the cells were treated with comparative compound C1 dissolved in DMSO at 5 mM or at 1 mM for 6 consecutive days, where fresh medium with C1 was added in 6 well plates every day and the cells were split every 3 days or the cells were treated with C2 at 15 μM dissolved in DMSO for 24 h. Cell fractionation was conducted using the NE-PER Nuclear and Cytoplasmic Extraction Reagents (ThermoFisher Scientific) according to the manufacturer's instructions. Nuclear (N) and cytoplasmic (C) fractions were analyzed for HuR expression by western blot as described above. […] As a comparison of successful increase in HuR cytoplasmic content, western blot analysis was performed on cells infected with aG or aH at m.o.i 5, 25 or 125 as described in Example1 (FIG. 8C).
(§2) Western blot analysis was conducted as described in Examples 1 and 5, except that cells were treated with LiCl at 1 mM (for 6 h for A375 and for 24 h for MALME-3M cells) before cell lysis and analysis. […] Considering that HuR is mainly a nuclear protein, the absence of any nuclear contamination in the cytoplasm as observed here fulfils the experimental requirements. The increased cytoplasmic expression of HuR was quantified as being respectively 80% and 50% increased in A375 and Malme 3M melanoma cells using an image quantification software (ImageJ).
(Immunoblotting shows a protein as a band on a membrane.)

For a further experiment, the system named is HuR in MALME-3M cells. Briefly: Western blot of nuclear and cytoplasmic fractions for HuR expression, MALME-3M. It counts as cell-based, human. Conditions: for HuR cytoplasmic content: C1 5 mM or 1 mM for 6 days, C2 15 μM 24 h.
Excerpt: as §1, §2

Experiment [1] has as its system HuR in A375 melanoma cells. Briefly: Whole cell extract western blot on HuR-expressing adenovirus-infected A375 cells. The following applies: Li 1 mM and 10 mM.
Protocol: Western blot analysis was performed on cell extracts of A375 cells at 48 h post-infection. Whole cell lysates were prepared using RIPA (radioimmunoprecipitation assay) buffer (PBS (phosphate-buffered saline), 1% NP40 (nonyl phenoxypolyethoxylethanol 40), 0.1% sodium deoxycholate, 0.1% SDS (sodium dodecyl sulphate)) supplemented with fresh protease and phosphatase inhibitors (easy packs tablets, Roche). Cell lysates were quantified for protein content using Bio-Rad DC (detergent compatible) kit. Protein samples were resolved on 12.5% polyacrylamide Bis-Tris gel (Bio-rad) and then transferred to nitrocellulose membrane. After saturation, the membranes were incubated overnight with the anti-HuR mouse monoclonal antibody (Santa-Cruz/3A2-sc-5261, 1:1000) raised against full-length HuR of human origin. The secondary antibody conjugated to horseradish-peroxidase (Bio-Rad goat anti-mouse IgG-HRP, 1:3000) was incubated at room temperature for 30 minutes. Blots were developed using the ECL (enhanced chemiluminescent) system (Thermo-Scientific) according to the manufacturer's instructions.
A further experiment relates to A375 cells. Briefly: WST-1 cell proliferation assay, vemurafenib dose response. In kind it is cell-based. The following applies: for proliferation rate increase (paradoxical proliferation): A375 cells, 48 h. How it is done:
The A375 BRAFV600E melanoma cell line was purchased from CLS Cell Lines Service GmbH (Cryovial: 300110). A375 cells were maintained at 37° C. and 5% CO2 in a humidified atmosphere and grown in DMEM (Dulbecco's modified Eagle's medium) growth media supplemented with 10% FBS (fetal bovine serum), 2 mM glutamine, 1% penicillin/streptomycin. Cells were verified to be mycoplasma-free (PanReac Applichem mycoplasma test kit). Cells were treated with the BRAF inhibitor, vemurafenib (Selleckchem), also known as N-[3-[5-(4-chlorophenyl)-1H-pyrrolo[2,3-b]pyridine-3-carbonyl]-2,4-difluorophenyl]propane-1-sulfonamide and dissolved in dimethyl sulphoxide (DMSO, 10 mM storing concentration).
Cell proliferation was measured using WST-1 reagent (Roche applied Science). Melanoma cells were plated (2500 cells per well) in 96-well tissue culture plates. After 24 h, the cells were treated with vemurafenib or DMSO (excipient) at the indicated concentrations in triplicate or quadruplicate. The excipient is used at the same dilution as the one necessary to get the desired concentration of vemurafenib, in that case for example if 1/1000 dilution is necessary to get a 100 nM final concentration of vemurafenib, then the DMSO pure stock solution will be also diluted to 1/1000. For the standard proliferation assays, after the treatment period of 48 h, WST-reagent (20 μl, 10% of the final volume) was added to the wells and incubated at 37° C. for 1 to 2 h depending on the experiment in order to stay within the linear range of the assay. The plates were read at 450(−650) nm on a Vmax kinetic ELISA Microplate Reader (Molecular Devices). Cell proliferation is expressed as percentage of the absorbance compared with the DMSO-treated cells. Proliferation assays for overexpression experiments were scheduled as follows: A375 cells were plated (800000 cells per well) in six-well culture plates. After 24 h, the cells were infected overnight at indicated m.o.i. […]
For orientation: Formazan colour is commonly taken as a measure of viable cells.

Experiment [2] has as its system BRAF-mutant colorectal patients. Conditions: BRAF-mutant colorectal patients (Kopetz et al., 2010); cited from earlier work.

As to `NCCC[C@](N)(C(=O)O)C(F)F` [C1, α-difluoromethylornithine], the HuR cytoplasmic content entry with HuR in A375 cells and with HuR in MALME-3M cells (MALME-3M cells) was “no increase of HuR cytoplasmic content” each time.
Take `Cc1cccc(C)c1OCC(=O)N[C@@H](Cc1ccccc1)[C@@H](O)C[C@H](Cc1ccccc1)NC(=O)[C@H](C(C)C)N1CCCNC1=O` [C2, (2S)-N-[(2S,4S,5S)-5-[[2-(2,6-dimethylphenoxy)acetyl]amino]-4-hydroxy-1,6-diphenylhexan-2-yl]-3-methyl-2-(2-oxo-1,3-diazinan-1-yl)butanamide]: the HuR cytoplasmic content entry in the experiment with HuR in A375 cells and in the experiment with HuR in MALME-3M cells (MALME-3M cells) was “no increase of HuR cytoplasmic content” in each case.
For `[Cl-].[Li+]` [LiCl, Lithium Chloride], the “total amount of HuR expression and HuR cytoplasmic content” value in the experiment with HuR in A375 cells (LiCl 1 mM) is “increase of both total amount of HuR expression and HuR cytoplasmic content”; in the experiment with HuR in MALME-3M cells (MALME-3M cells, LiCl 1 mM) it was “increase of both total amount of HuR expression and HuR cytoplasmic content”. For the same molecule, the “increased cytoplasmic expression of HuR (ImageJ quantification)” value with HuR in A375 cells (LiCl 1 mM, 6 h) is recorded as 80%; in the experiment on HuR in MALME-3M cells (Malme 3M cells, LiCl 1 mM, 24 h), 50%. The “total amount of HuR expression (endogenous and exogenous epitope-tagged HuR)” value in experiment [1] is reported as “clearly increases the total amount of HuR expression with a dose effect”.
Take `CCCS(=O)(=O)Nc1ccc(F)c(C(=O)c2c[nH]c3ncc(-c4ccc(Cl)cc4)cc23)c1F` [vemurafenib, N-{3-[5-(4-chlorophenyl)-1H-pyrrolo[2,3-b]pyridine-3-carbonyl]-2,4-difluorophenyl}propane-1-sulfonamide]: the “proliferation rate increase (paradoxical proliferation)” value in the experiment on A375 cells (20 nM vemurafenib) is recorded as “up to 50%”; with A375 cells (100 nM vemurafenib), “up to 25%”. Also, the vemurafenib-induced paradoxical proliferation result with A375 cells (aH cells (HuR-overexpressing A375), in contrast to aG or non-infected cells) was “no vemurafenib-induced paradoxical proliferation was observed”. Also, the patients who respond in experiment [2] is roughly 5%.

These data come from patent US10772875B2, “Agents enhancing HuR/ELAV protein levels for use in the treatment of BRAF-mutated cancers” (LES HOPITAUX UNIVERSITAIRES DE GENEVE, priority 2017, dated 2020).
